Measured values as given in publication PMC7169385, “Metabolic Stability of New Mito-Protective Short-Chain Naphthoquinones” (Pharmaceuticals, 2020).
“And” between values parts separate entries of the source, which are not always exact repeats. Identical values can stand only once.

Tests used:
HepG2 cells [1] = tested on: HepG2 cells; set-up: method as in PMID 30996858; details: ref [11], cited from earlier work; for In vitro Cytoprotection (%): HepG2, 10 μM SCQ, rotenone, cell survival relative to untreated cells (27.9 ± 7.9%), mean ± SD
[2] = tested on: idebenone metabolism in HepG2 cells; experiment: Idebenone metabolism in HepG2 cells with or without 5; assay type: in vitro ADME, human; details: HepG2, 6 h
Experimental: The conversion from the L-phenylalaninol derivative 3 to the L-phenylalanine derivative 5 appeared to reach a plateau at ~10% conversion from t = 2 h and persisted for the entire test period until t = 6 h. […] A concentration series of the unstable reference SCQ idebenone was tested for metabolic stability for 6 h with or without 40 μM 5 (Figure 4). […] Future studies will need to address the type of inhibition and to identify the specific enzyme that is inhibited.
Figure 4 Reduced idebenone metabolism in the presence of the L-phenylalanine derivative 5. Data was expressed as mean ± SEM from three independent experiments, with 4 data points each. Non-linear fits and two-way ANOVA were performed for comparisons between with or without 5 supplemented: *** p < 0.001, * p < 0.033.

HepG2 cells [3] = experiment: Metabolic stability study in HepG2 cells with RP-LC quantitation; assay type: in vitro ADME, human; details: for metabolic stability (in words) / metabolic conversion to the oxidized form: up to 6 h; for metabolic conversion to the oxidized form: by retention time, 3 to 5, 14 to 15, 4 to UTAS#94
Experimental: HepG2 cells were cultured in DMEM culture media in an atmosphere of 95% humidified air and 5% CO2 at 37 °C. Cells were passaged twice a week when reaching approximately 75% confluency. Cell monolayers were washed with PBS once before harvested with 0.5 mL EDTA and 0.5 mL trypsin for 3.5 min and counted using a hemocytometer (Paul Marienfeld GmbH, Lauda-Königshofen, Germany). Cells were routinely grown in 25 cm^2 cell culture flasks (2 μm vent cap, Corning, Victoria, Australia) with 2 × 10^6 cells seeded in 5 mL culture media. After thawing from liquid nitrogen storage, cells were passaged for at least 2–3 weeks to reach steady cumulative growth rates before used for any experiments.
To effectively compare the metabolic stability of our novel SCQs to the reference compound idebenone, a cell culture system had to be developed that would replicate the high metabolic conversion of idebenone in the liver observed in vivo [15, 16, 17]. We therefore employed the hepatic cell line HepG2 to expose the test compounds to hepatic-like enzymatic activities. In addition, the test concentration for SCQs and idebenone had to take into consideration two opposing factors. On the one hand the assay would need to contain sufficient test compound to maximize detection accuracy, on the other hand, the concentration needed to be below the levels that might induce toxicity towards the cultured cells. Based on previous data, no significant cell loss was observed when HepG2 cells were treated with most SCQs at a concentration of 200 μM for 24 h, which led us to select the lower concentration of 40 μM as test concentration. […] We therefore selected the lowest cell concentration (2.5 × 10^5 cells in 2 mL culture media) for this assay.
Log phase HepG2 cells were seeded at 2.5 × 10^5 cells well^−1 in tissue culture-treated 6-well plates (Corning, Victoria, Australia) and allowed to adhere overnight. After one day, the culture media was replaced with fresh culture media (2 mL well^−1) containing the test compounds (12 parallel wells per SCQ). After incubation of cells with test compounds for up to 6 hours, the cell culture media containing the residual SCQs was removed from the six-well plates. Then, 1 mL of cell culture media containing each tested compound was collected at different time points (t = 0, 2 h, 4 h, 6 h). Several methods of sample preparation were tested (e.g., dilution with organic solvents followed by evaporation) and the most suited approach was identified. Each sample (1 mL) was mixed 1:1 with ACN, vortexed for 10 s, and then centrifuged at 2000× g for 10 min at 25 °C. 1 mL of each supernatant was diluted 1:1 in purified water and filtered using 0.45 μm filters prior to immediate analysis by RP-LC. The final concentration of tested compounds for RP-LC analysis was ≤10 μM.
The RP-LC method was developed so that ≤10 μM of each SCQ could be quantified with acceptable repeatability (RSD%) and recovery (%). The mobile phase gradient was adjusted to generate a retention time (RT) of all compounds between 3.00–9.05 min (Table S1). The final conditions included a gradient flow of mobile phase B: 25% (same ACN% in the sample) for 2 min, 25–95% for 3 min, 95% for 4 min, 95–25% for 1 min, and 25% for 5 min (total run t = 15 min, including column post-conditioning). The injection volume (2–20 μL) and detection wavelength (210 nm, 230 nm, 254 nm, 480 nm) were then varied to optimize sensitivity, with 20 μL sample injection volume and detection at 210 nm identified as ideal (Figure S3). Supplementary Table S1 summarizes the analytical figures of merit for the RP-LC of all the compounds. […] The limit of quantification (LOQ) of each compound was established as 1 μM. RSD% (n = 3) at all concentrations (1.0 μM, 2.5 μM, 5.0 μM, 7.5 μM, and 10 μM) were between 0.4–7.6%. […] The above values for analytical figures of merit were considered acceptable for determining metabolic stability of the compounds with concentrations ≤10 μM. […]

[4] = set-up: method as in PMID 19125241; details: single dose of 150 mg; ref [15]; cited from earlier work

CCCCNC(=O)CCCC1=C(C)C(=O)c2ccccc2C1=O [Compound 12]
In vitro Cytoprotection (%) (HepG2 cells [1]): 82.0 ± 7.1%

CC1=C(CCCC(=O)N[C@@H](Cc2ccccc2)C(=O)O)C(=O)c2ccccc2C1=O [Compound 5]
stability of 5 in combination with idebenone ([2]; 40 μM 5, all concentrations of idebenone): stable | effect on idebenone metabolism ([2]; 40 μM 5, from 20 μM idebenone onward): significant reduction of idebenone metabolism | metabolic stability (in words) (HepG2 cells [3]; HepG2, 40 μM): without a significant metabolic conversion | In vitro Cytoprotection (%) (HepG2 cells [1]): 100.3 ± 17.3%

COC(=O)[C@@H](NC(=O)CCCC1=C(C)C(=O)c2ccccc2C1=O)c1ccccc1 [Compound 13]
In vitro Cytoprotection (%) (HepG2 cells [1]): 86.1 ± 5.0%

CC1=C(CCCC(=O)N2CCCC2CO)C(=O)c2ccccc2C1=O (stereo not drawn) [Compound 14]
metabolic conversion to the oxidized form (HepG2 cells [3]; HepG2, 40 μM): not detected at all | In vitro Cytoprotection (%) (HepG2 cells [1]): 100.7 ± 28.4%

CC1=C(CCCCCC(=O)NCCc2ccc(O)cc2)C(=O)c2ccccc2C1=O [Compound 9]
metabolic stability (in words) (HepG2 cells [3]; HepG2, 40 μM): increased metabolic stability | In vitro Cytoprotection (%) (HepG2 cells [1]): 85.2 ± 9.5%

CC1=C(CCCC(=O)N[C@@H](CO)Cc2ccccc2)C(=O)c2ccccc2C1=O [Compound 4]
metabolic stability (in words) (HepG2 cells [3]; HepG2, 40 μM): without a significant metabolic conversion | metabolic conversion to the oxidized form (HepG2 cells [3]; HepG2, 40 μM): no conversion was detected | In vitro Cytoprotection (%) (HepG2 cells [1]): 80.0 ± 21.1%

COc1ccc(CCNC(=O)CCCC2=C(C)C(=O)c3ccccc3C2=O)cc1OC [Compound 11]
In vitro Cytoprotection (%) (HepG2 cells [1]): 95.9 ± 19.4%

CC1=C(CCCC(=O)N[C@H](CO)Cc2ccccc2)C(=O)c2ccccc2C1=O [Compound 3]
metabolic stability (in words) (HepG2 cells [3]; HepG2, 40 μM): much less stable than its unnatural D-enantiomer 4 | In vitro Cytoprotection (%) (HepG2 cells [1]): 93.1 ± 13.7%

CC1=C(CCCC(=O)N[C@H](Cc2ccccc2)C(=O)O)C(=O)c2ccccc2C1=O [UTAS#94]
cytoprotection (in words) (HepG2 cells [1]; selection for the current study): not cytoprotective enough

CC1=C(SCCC(=O)O)C(=O)c2ccccc2C1=O [Compound 16]
metabolic stability (in words) (HepG2 cells [3]; HepG2, 40 μM): significantly reduced metabolic stability

CC1=C(CCCC(=O)N[C@@H](CC(C)C)C(=O)O)C(=O)c2ccccc2C1=O [Compound 10]
metabolic stability (in words) (HepG2 cells [3]; HepG2, 40 μM): without a significant metabolic conversion | In vitro Cytoprotection (%) (HepG2 cells [1]): 98.7 ± 10.9%

COC1=C(OC)C(=O)C(CCCCCCCCCCO)=C(C)C1=O [Idebenone, reference compound]
remaining at t = 6 h (HepG2 cells [3]; HepG2 2.5 × 10^5 cells per well, 40 μM, 6 h, normalized to t = 0): ~ 27.3% | metabolized drug after 2 h (HepG2 cells [3]; HepG2, 40 μM, 2 h, three cell densities (2.5 × 10^5 to 1.0 × 10^6 cells in 2 mL)): ~ 50% | metabolized drug after 4 h (HepG2 cells [3]; HepG2, 40 μM, 4 h, three cell densities (2.5 × 10^5 to 1.0 × 10^6 cells in 2 mL)): ~76% | t1/2 in vivo [4]: 3 h and ~ 3 h | In vitro Cytoprotection (%) (HepG2 cells [1]): 66.2 ± 12.0%

CC1=C(CCCC(=O)NCCc2ccc(O)cc2)C(=O)c2ccccc2C1=O [Compound 7]
metabolic stability (in words) (HepG2 cells [3]; HepG2, 40 μM): less stable | In vitro Cytoprotection (%) (HepG2 cells [1]): 91.7 ± 15.6%

CC1=C(CCCC(=O)N[C@@H](CO)c2ccccc2)C(=O)c2ccccc2C1=O [Compound 2]
metabolic stability (in words) (HepG2 cells [3]; HepG2, 40 μM): without a significant metabolic conversion | In vitro Cytoprotection (%) (HepG2 cells [1]): 87.6 ± 19.7%

CC1=C(CCCC(=O)N2CCCC2C(=O)O)C(=O)c2ccccc2C1=O (stereo not drawn) [Compound 15]
In vitro Cytoprotection (%) (HepG2 cells [1]): 92.7 ± 7.6%

CC1=C(CCCCC(=O)N[C@@H](Cc2ccccc2)C(=O)O)C(=O)c2ccccc2C1=O [Compound 6]
metabolic stability (in words) (HepG2 cells [3]; HepG2, 40 μM): without a significant metabolic conversion | In vitro Cytoprotection (%) (HepG2 cells [1]): 90.7 ± 15.6%

CC1=C(CCCCC(=O)NCCc2ccc(O)cc2)C(=O)c2ccccc2C1=O [Compound 8]
metabolic stability (in words) (HepG2 cells [3]; HepG2, 40 μM): increased metabolic stability | In vitro Cytoprotection (%) (HepG2 cells [1]): 91.8 ± 9.8%

CC1=C(CCCC(=O)N[C@H](CO)c2ccccc2)C(=O)c2ccccc2C1=O [Compound 1]
metabolic stability (in words) (HepG2 cells [3]; HepG2, 40 μM): without a significant metabolic conversion | In vitro Cytoprotection (%) (HepG2 cells [1]): 83.8 ± 19.9%
